Key:
Experiment in all cases: relative viability (nuclei count vs DMSO), 5 days (fraction); higher = more cells survive
Linifanib + Trametinib = compound: Cc1ccc(F)c(NC(=O)Nc2ccc(-c3cccc4[nH]nc(N)c34)cc2)c1 [Linifanib] + CC(=O)Nc1cccc(-n2c(=O)n(C3CC3)c(=O)c3c(Nc4ccc(I)cc4F)n(C)c(=O)c(C)c32)c1 [Trametinib] (partner 0.02 µM)
Procedure, shortened: (§1)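 Values are medians from duplicate plates. Each reflects relative viability, defined as the nuclei count of treated wells over that of vehicle wells. Lung cancer cell lines in 1536-well plates were pin-tool dosed one day after seeding with one drug alone or with a fixed anchor-drug dose plus five library-drug doses (not always all listed) in √10 steps, then fixed, stained and imaged at 4× after 5 days.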

Linifanib + Foretinib = compound: Cc1ccc(F)c(NC(=O)Nc2ccc(-c3cccc4[nH]nc(N)c34)cc2)c1 [Linifanib] + COc1cc2c(Oc3ccc(NC(=O)C4(C(=O)Nc5ccc(F)cc5)CC4)cc3F)ccnc2cc1OCCCN1CCOCC1 [Foretinib] (partner 0.25 µM)
Procedure, shortened: as §1

Linifanib + Crizotinib = compound: Cc1ccc(F)c(NC(=O)Nc2ccc(-c3cccc4[nH]nc(N)c34)cc2)c1 [Linifanib] + C[C@@H](Oc1cc(-c2cnn(C3CCNCC3)c2)cnc1N)c1c(Cl)ccc(F)c1Cl [Crizotinib] (partner 1 µM)
Procedure, shortened: as §1

Linifanib + Linsitinib = compound: Cc1ccc(F)c(NC(=O)Nc2ccc(-c3cccc4[nH]nc(N)c34)cc2)c1 [Linifanib] + C[C@]1(O)C[C@@H](c2nc(-c3ccc4ccc(-c5ccccc5)nc4c3)c3c(N)nccn32)C1 [Linsitinib] (partner 1 µM)
Procedure, shortened: as §1

Linifanib + Phenformin = compound: Cc1ccc(F)c(NC(=O)Nc2ccc(-c3cccc4[nH]nc(N)c34)cc2)c1 [Linifanib] + N=C(N)NC(=N)NCCc1ccccc1 [Phenformin] (partner 250 µM)
Procedure, shortened: as §1

Linifanib + Pemetrexed = compound: Cc1ccc(F)c(NC(=O)Nc2ccc(-c3cccc4[nH]nc(N)c34)cc2)c1 [Linifanib] + Nc1nc2[nH]cc(CCc3ccc(C(=O)N[C@@H](CCC(=O)O)C(=O)O)cc3)c2c(=O)[nH]1 [Pemetrexed] (partner 0.2 µM)
Procedure, shortened: as §1

| Cell Line | relative viability (Linifanib + Trametinib; first compound 0.03162 µM) | relative viability (Linifanib + Trametinib; first compound 0.1 µM) | relative viability (Linifanib + Trametinib; first compound 0.3162 µM) | relative viability (Linifanib + Foretinib; first compound 0.03162 µM) | relative viability (Linifanib + Foretinib; first compound 0.1 µM) | relative viability (Linifanib + Foretinib; first compound 0.3162 µM) | relative viability (Linifanib + Crizotinib; first compound 0.03162 µM) | relative viability (Linifanib + Crizotinib; first compound 0.1 µM) | relative viability (Linifanib + Crizotinib; first compound 0.3162 µM) | relative viability (Linifanib + Linsitinib; first compound 0.03162 µM) | relative viability (Linifanib + Linsitinib; first compound 0.1 µM) | relative viability (Linifanib + Linsitinib; first compound 0.3162 µM) | relative viability (Linifanib + Phenformin; first compound 0.03162 µM) | relative viability (Linifanib + Phenformin; first compound 0.1 µM) | relative viability (Linifanib + Phenformin; first compound 0.3162 µM) | relative viability (Linifanib + Pemetrexed; first compound 0.03162 µM) | relative viability (Linifanib + Pemetrexed; first compound 0.1 µM) | relative viability (Linifanib + Pemetrexed; first compound 0.3162 µM) |
| --- | --- | --- | --- | --- | --- | --- | --- | --- | --- | --- | --- | --- | --- | --- | --- | --- | --- | --- |
| EMC-BAC-2 | 1.01 | 0.993 | 0.875 | 1.02 | 1.05 | 1.03 | 0.837 | 0.791 | 0.733 | 0.818 | 0.877 | 0.762 | 0.625 | 0.582 | 0.544 | 0.456 | 0.448 | 0.472 |
| EPLC-272H | 0.254 | 0.292 | 0.274 | 0.643 | 0.657 | 0.556 | 0.813 | 0.913 | 0.826 | 1.04 | 1.2 | 1.15 | 0.298 | 0.318 | 0.325 | 0.332 | 0.358 | 0.339 |
| H3255 | 0.629 | 0.698 | 0.554 | 1 | 0.946 | 0.721 | 0.865 | 0.892 | 0.85 | 0.976 | 1.14 | 0.845 | 0.345 | 0.203 | 0.438 | 0.555 | 0.586 | 0.529 |
| HARA | 0.813 | 0.809 | 0.591 | 1.09 | 1.06 | 0.835 | 1.09 | 1.18 | 0.975 | 0.991 | 0.931 | 0.939 | 0.446 | 0.539 | 0.476 | 0.258 | 0.261 | 0.306 |
| HCC-15 | 0.346 | 0.409 | 0.365 | 1.01 | 1.04 | 1.09 | 0.855 | 0.86 | 0.779 | 0.881 | 0.89 | 0.817 | 0.501 | 0.567 | 0.479 | 0.239 | 0.229 | 0.232 |
| HCC-44 | 1.05 | 1.07 | 1.03 |  |  |  | 0.839 | 0.831 | 0.733 | 0.741 | 0.71 | 0.664 | 0.29 | 0.195 | 0.248 | 0.624 | 0.552 | 0.613 |
| HCC-78 | 0.657 | 0.692 | 0.805 | 0.543 | 0.501 | 0.542 | 0.373 | 0.376 | 0.319 | 0.528 | 0.526 | 0.497 | 0.675 | 0.761 | 0.686 | 0.944 | 0.926 | 0.85 |
| HCC-366 | 0.4 | 0.391 | 0.399 | 1.01 | 0.981 | 0.826 | 0.558 | 0.69 | 0.454 | 0.676 | 0.735 | 0.5 | 0.575 | 0.62 | 0.635 | 0.159 | 0.15 | 0.139 |

From the supplement of paper PMC10307832
